Experimental data: the NIST ThermoML archive (doi:10.1021/je0498560)

Assay: xn = mol fraction of the nth substance listed
Conditions: Liquid

FC(F)(F)C(F)(F)C(F)(F)C(F)(F)C(F)(F)C(F)(F)F [perfluorohexane] + O=C=O
313 K
Conditions | molar volume [m3/mol]
x2 = 0.146 | 0.0001867
x2 = 0.163 | 0.000187
x2 = 0.262 | 0.0001742
x2 = 0.27 | 0.0001732
x2 = 0.339 | 0.0001655
x2 = 0.424 | 0.0001511
x2 = 0.474 | 0.0001448
x2 = 0.547 | 0.0001324
x2 = 0.615 | 0.0001235
x2 = 0.665 | 0.0001165
x2 = 0.721 | 0.0001062
x2 = 0.765 | 9.7e-05
x2 = 0.776 | 9.49e-05
x2 = 0.811 | 9.03e-05
x2 = 0.836 | 9.17e-05

CN1CCCC1=O [N-methylpyrrolidone] + O=C=O
313 K
Conditions | molar volume [m3/mol]
x2 = 0.104 | 8.91e-05
x2 = 0.19 | 8.48e-05
x2 = 0.242 | 8.26e-05
x2 = 0.311 | 7.9e-05
x2 = 0.374 | 7.57e-05
x2 = 0.437 | 7.32e-05
x2 = 0.499 | 6.98e-05
x2 = 0.565 | 6.66e-05
x2 = 0.629 | 6.23e-05
x2 = 0.725 | 5.67e-05
x2 = 0.816 | 5.34e-05

CC(C)O [propan-2-ol] + O=C=O
313 K
Conditions | molar volume [m3/mol]
x2 = 0.018 | 7.97e-05
x2 = 0.065 | 7.88e-05
x2 = 0.133 | 7.62e-05
x2 = 0.21 | 7.45e-05
x2 = 0.3 | 7.17e-05
x2 = 0.401 | 6.85e-05
x2 = 0.51 | 6.4e-05
x2 = 0.639 | 6.06e-05
x2 = 0.725 | 5.99e-05
x2 = 0.788 | 6.01e-05

ClCCl [dichloromethane] + O=C=O
313 K
Conditions | molar volume [m3/mol]
x2 = 0.044 | 6.51e-05
x2 = 0.114 | 6.32e-05
x2 = 0.188 | 6.24e-05
x2 = 0.269 | 6.13e-05
x2 = 0.444 | 5.87e-05
x2 = 0.533 | 5.74e-05
x2 = 0.644 | 5.64e-05
x2 = 0.738 | 5.32e-05
x2 = 0.83 | 5.42e-05
x2 = 0.859 | 5.82e-05

C[N+](=O)[O-] [nitromethane] + O=C=O
Conditions | molar volume [m3/mol]
298 K, x2 = 0.12 | 4.93e-05
298 K, x2 = 0.238 | 4.83e-05
298 K, x2 = 0.346 | 4.76e-05
298 K, x2 = 0.457 | 4.74e-05
298 K, x2 = 0.552 | 4.74e-05
298 K, x2 = 0.678 | 4.71e-05
298 K, x2 = 0.747 | 4.77e-05
298 K, x2 = 0.81 | 4.78e-05
298 K, x2 = 0.855 | 4.87e-05
298 K, x2 = 0.876 | 4.91e-05
313 K, x2 = 0.048 | 5.88e-05
313 K, x2 = 0.119 | 5.71e-05
313 K, x2 = 0.183 | 5.56e-05
313 K, x2 = 0.254 | 5.51e-05
313 K, x2 = 0.32 | 5.45e-05
313 K, x2 = 0.385 | 5.37e-05
313 K, x2 = 0.479 | 5.32e-05
313 K, x2 = 0.546 | 5.23e-05
313 K, x2 = 0.627 | 5.09e-05
313 K, x2 = 0.727 | 4.99e-05
313 K, x2 = 0.791 | 5.08e-05

OCC(F)(F)F [2,2,2-trifluoroethanol] + O=C=O
Conditions | molar volume [m3/mol]
298 K, x2 = 0.132 | 6.39e-05
298 K, x2 = 0.225 | 6.3e-05
298 K, x2 = 0.358 | 5.95e-05
298 K, x2 = 0.48 | 5.81e-05
298 K, x2 = 0.599 | 5.71e-05
298 K, x2 = 0.704 | 5.51e-05
298 K, x2 = 0.749 | 5.51e-05
298 K, x2 = 0.795 | 5.43e-05
298 K, x2 = 0.842 | 5.49e-05
298 K, x2 = 0.888 | 5.48e-05
298 K, x2 = 0.927 | 5.5e-05
313 K, x2 = 0.16 | 6.1e-05
313 K, x2 = 0.23 | 6.13e-05
313 K, x2 = 0.337 | 6.06e-05
313 K, x2 = 0.424 | 5.94e-05
313 K, x2 = 0.517 | 5.84e-05
313 K, x2 = 0.628 | 5.51e-05
313 K, x2 = 0.715 | 5.3e-05
313 K, x2 = 0.773 | 5.34e-05
313 K, x2 = 0.849 | 5.65e-05
313 K, x2 = 0.901 | 5.98e-05

CC#N [acetonitrile] + O=C=O
313 K
Conditions | molar volume [m3/mol]
x2 = 0.044 | 5.19e-05
x2 = 0.073 | 5.25e-05
x2 = 0.093 | 5.33e-05
x2 = 0.168 | 5.24e-05
x2 = 0.241 | 5.11e-05
x2 = 0.312 | 5.1e-05
x2 = 0.381 | 5.18e-05
x2 = 0.449 | 5.07e-05
x2 = 0.523 | 4.98e-05
x2 = 0.598 | 4.96e-05
x2 = 0.688 | 4.9e-05
x2 = 0.77 | 4.87e-05
x2 = 0.834 | 5.08e-05

CC(C)=O [acetone] + O=C=O
323 K
Conditions | molar volume [m3/mol]
x2 = 0.056 | 7.37e-05
x2 = 0.14 | 7.18e-05
x2 = 0.251 | 6.75e-05
x2 = 0.335 | 6.67e-05
x2 = 0.432 | 6.42e-05
x2 = 0.53 | 6.23e-05
x2 = 0.603 | 6.1e-05
x2 = 0.648 | 6.01e-05
x2 = 0.695 | 5.71e-05
x2 = 0.73 | 5.66e-05
x2 = 0.76 | 5.74e-05
x2 = 0.787 | 5.81e-05

Cc1ccccc1 [toluene] + O=C=O
323 K
Conditions | molar volume [m3/mol]
x2 = 0.091 | 0.0001014
x2 = 0.175 | 9.72e-05
x2 = 0.26 | 9.21e-05
x2 = 0.335 | 8.76e-05
x2 = 0.408 | 8.37e-05
x2 = 0.48 | 8.02e-05
x2 = 0.524 | 7.82e-05
x2 = 0.583 | 7.22e-05
x2 = 0.644 | 6.72e-05
x2 = 0.715 | 6.46e-05
x2 = 0.764 | 6.32e-05
x2 = 0.821 | 6.23e-05
x2 = 0.865 | 6.26e-05
x2 = 0.883 | 6.35e-05

C1CCOC1 [tetrahydrofuran] + O=C=O
Conditions | molar volume [m3/mol]
298 K, x2 = 0.132 | 7.08e-05
298 K, x2 = 0.228 | 6.55e-05
298 K, x2 = 0.333 | 6.46e-05
298 K, x2 = 0.451 | 6.2e-05
298 K, x2 = 0.518 | 6.08e-05
298 K, x2 = 0.624 | 5.86e-05
298 K, x2 = 0.736 | 5.64e-05
298 K, x2 = 0.83 | 5.49e-05
298 K, x2 = 0.899 | 5.43e-05
313 K, x2 = 0.098 | 7.75e-05
313 K, x2 = 0.313 | 7.09e-05
313 K, x2 = 0.398 | 6.82e-05
313 K, x2 = 0.489 | 6.53e-05
313 K, x2 = 0.576 | 6.29e-05
313 K, x2 = 0.655 | 6.23e-05
313 K, x2 = 0.733 | 6.02e-05
313 K, x2 = 0.832 | 5.72e-05
313 K, x2 = 0.89 | 6.02e-05
333 K, x2 = 0.165 | 7.45e-05
333 K, x2 = 0.26 | 7.34e-05
333 K, x2 = 0.404 | 6.87e-05
333 K, x2 = 0.539 | 6.6e-05
333 K, x2 = 0.696 | 5.84e-05
333 K, x2 = 0.808 | 6.04e-05
333 K, x2 = 0.85 | 6.29e-05
333 K, x2 = 0.893 | 7.05e-05
